Tests used:
Format in all cases: binding
[1] = molecular target: T1, kinases (KINOMEscan panel) (Homo sapiens, UniProt O43318); conditions: NEW KINOMEscan
T1 sequence (O43318 1-606): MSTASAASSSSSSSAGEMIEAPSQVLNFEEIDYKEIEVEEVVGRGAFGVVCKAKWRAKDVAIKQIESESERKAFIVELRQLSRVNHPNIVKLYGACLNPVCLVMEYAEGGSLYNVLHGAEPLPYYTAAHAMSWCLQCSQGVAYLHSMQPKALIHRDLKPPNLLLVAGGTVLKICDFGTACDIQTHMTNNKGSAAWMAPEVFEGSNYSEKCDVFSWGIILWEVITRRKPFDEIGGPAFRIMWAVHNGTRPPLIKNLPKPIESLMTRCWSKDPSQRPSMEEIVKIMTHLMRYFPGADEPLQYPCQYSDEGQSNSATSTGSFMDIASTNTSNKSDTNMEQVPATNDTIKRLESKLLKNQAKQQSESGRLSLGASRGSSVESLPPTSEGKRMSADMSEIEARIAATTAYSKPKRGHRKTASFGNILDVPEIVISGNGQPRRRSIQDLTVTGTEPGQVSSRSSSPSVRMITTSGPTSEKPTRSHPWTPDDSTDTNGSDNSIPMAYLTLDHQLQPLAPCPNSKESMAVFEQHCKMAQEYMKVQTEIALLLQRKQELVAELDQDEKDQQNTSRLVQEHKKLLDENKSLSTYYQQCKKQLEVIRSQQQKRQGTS

[2] = molecular target: T2, kinases (KINOMEscan panel) (Homo sapiens, UniProt O95835); conditions: LATS1; NEW KINOMEscan
T2 sequence (O95835 1-1130): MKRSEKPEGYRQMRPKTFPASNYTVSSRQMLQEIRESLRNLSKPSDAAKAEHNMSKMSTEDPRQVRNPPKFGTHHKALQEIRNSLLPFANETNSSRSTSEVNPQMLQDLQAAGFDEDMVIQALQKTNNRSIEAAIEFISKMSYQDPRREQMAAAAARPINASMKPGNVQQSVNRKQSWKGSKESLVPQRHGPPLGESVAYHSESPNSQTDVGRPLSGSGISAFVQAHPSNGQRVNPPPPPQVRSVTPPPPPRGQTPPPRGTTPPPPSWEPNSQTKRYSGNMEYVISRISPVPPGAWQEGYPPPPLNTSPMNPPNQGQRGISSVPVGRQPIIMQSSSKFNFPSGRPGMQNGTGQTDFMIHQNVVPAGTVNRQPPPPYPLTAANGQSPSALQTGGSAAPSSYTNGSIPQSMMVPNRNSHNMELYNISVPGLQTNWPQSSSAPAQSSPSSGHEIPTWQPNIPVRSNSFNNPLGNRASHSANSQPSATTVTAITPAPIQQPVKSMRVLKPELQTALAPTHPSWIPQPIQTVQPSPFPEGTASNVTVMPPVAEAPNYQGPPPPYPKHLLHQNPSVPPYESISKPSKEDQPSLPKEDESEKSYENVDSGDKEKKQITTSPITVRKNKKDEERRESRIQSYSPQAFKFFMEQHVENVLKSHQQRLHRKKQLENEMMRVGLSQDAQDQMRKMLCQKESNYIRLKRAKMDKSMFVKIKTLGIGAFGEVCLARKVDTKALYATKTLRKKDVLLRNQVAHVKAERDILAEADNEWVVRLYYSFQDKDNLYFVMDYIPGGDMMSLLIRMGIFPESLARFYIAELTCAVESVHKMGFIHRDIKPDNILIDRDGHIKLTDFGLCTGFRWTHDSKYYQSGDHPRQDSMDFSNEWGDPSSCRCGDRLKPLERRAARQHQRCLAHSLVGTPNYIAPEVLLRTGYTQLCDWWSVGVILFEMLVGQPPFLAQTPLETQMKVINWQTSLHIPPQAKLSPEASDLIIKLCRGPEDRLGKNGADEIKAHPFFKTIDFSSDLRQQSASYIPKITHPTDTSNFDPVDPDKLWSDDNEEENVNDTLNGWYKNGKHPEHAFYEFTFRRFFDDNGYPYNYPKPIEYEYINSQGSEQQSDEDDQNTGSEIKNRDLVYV

[3] = molecular target: T3, kinases (KINOMEscan panel) (Homo sapiens, UniProt P54753); conditions: kinase EPHB3; NEW KINOMEscan
T3 sequence (P54753 34-998): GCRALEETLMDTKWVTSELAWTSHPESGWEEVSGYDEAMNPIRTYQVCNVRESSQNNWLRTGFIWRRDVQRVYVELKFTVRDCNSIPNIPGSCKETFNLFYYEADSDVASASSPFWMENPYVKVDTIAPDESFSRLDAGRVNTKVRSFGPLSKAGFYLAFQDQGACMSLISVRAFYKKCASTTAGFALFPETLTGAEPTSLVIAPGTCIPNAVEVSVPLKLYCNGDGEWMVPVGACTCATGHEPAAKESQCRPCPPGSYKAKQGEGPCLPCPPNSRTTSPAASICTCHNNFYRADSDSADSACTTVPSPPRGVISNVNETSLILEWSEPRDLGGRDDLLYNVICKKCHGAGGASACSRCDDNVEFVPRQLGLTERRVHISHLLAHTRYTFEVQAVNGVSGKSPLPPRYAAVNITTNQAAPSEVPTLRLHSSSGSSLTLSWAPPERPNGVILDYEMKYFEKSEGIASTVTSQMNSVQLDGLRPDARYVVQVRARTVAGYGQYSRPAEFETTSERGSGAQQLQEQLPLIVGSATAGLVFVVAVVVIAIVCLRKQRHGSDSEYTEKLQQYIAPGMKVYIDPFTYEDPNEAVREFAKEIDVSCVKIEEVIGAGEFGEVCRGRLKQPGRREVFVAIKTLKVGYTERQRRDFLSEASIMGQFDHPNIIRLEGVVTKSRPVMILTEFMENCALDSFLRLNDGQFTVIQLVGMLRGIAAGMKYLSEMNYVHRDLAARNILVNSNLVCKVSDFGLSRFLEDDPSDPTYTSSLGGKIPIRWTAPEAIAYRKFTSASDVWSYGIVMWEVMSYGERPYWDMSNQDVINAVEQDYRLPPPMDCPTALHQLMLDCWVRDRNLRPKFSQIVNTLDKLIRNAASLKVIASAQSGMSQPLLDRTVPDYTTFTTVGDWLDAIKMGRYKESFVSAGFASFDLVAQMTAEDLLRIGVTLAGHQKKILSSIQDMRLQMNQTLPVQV

[4] = molecular target: kinases (KINOMEscan panel) (Homo sapiens, UniProt Q8NEV4); conditions: kinase MYO3A; NEW KINOMEscan
Chain of kinases (KINOMEscan panel) (Homo sapiens, UniProt Q8NEV4) (Q8NEV4 whole entry): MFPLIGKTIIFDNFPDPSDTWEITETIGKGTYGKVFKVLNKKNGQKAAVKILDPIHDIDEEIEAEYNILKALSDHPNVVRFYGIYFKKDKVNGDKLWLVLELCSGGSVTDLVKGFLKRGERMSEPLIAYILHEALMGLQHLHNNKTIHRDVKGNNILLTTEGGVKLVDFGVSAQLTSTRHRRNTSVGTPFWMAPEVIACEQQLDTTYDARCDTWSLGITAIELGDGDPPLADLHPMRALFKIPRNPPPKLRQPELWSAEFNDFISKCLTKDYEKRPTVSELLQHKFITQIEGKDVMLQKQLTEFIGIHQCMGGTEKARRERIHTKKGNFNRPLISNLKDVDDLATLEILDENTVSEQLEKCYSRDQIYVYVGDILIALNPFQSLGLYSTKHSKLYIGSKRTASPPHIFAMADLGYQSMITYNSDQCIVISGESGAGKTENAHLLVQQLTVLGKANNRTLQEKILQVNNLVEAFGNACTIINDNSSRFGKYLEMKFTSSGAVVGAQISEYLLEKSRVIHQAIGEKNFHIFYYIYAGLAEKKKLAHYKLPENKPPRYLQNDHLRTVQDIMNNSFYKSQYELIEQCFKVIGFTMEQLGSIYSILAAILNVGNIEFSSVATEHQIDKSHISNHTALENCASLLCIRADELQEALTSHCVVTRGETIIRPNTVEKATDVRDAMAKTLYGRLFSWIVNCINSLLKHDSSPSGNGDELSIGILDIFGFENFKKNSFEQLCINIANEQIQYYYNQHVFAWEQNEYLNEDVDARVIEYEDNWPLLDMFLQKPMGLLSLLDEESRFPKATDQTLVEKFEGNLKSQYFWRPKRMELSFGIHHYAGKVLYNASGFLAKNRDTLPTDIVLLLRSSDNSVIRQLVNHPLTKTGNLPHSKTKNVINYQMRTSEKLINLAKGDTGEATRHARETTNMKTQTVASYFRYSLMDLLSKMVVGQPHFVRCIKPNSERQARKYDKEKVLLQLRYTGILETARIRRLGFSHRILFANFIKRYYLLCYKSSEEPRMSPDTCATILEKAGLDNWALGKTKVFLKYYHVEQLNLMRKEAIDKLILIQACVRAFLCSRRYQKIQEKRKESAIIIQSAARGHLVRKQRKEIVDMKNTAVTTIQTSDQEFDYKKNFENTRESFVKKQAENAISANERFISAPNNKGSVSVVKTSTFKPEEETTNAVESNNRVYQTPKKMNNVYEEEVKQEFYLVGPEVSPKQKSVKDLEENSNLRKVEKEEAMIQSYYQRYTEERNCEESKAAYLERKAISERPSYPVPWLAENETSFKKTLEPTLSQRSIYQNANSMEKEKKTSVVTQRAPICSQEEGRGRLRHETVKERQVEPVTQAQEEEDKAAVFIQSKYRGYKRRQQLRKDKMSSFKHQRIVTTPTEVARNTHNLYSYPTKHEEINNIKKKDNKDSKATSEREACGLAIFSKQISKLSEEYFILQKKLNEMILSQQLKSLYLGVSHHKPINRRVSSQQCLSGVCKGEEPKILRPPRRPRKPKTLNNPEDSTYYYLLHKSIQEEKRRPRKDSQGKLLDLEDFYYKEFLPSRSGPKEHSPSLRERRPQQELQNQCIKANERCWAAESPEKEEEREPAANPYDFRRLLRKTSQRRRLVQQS

[5] = molecular target: kinases (KINOMEscan panel) (Homo sapiens, UniProt Q99755); conditions: NEW KINOMEscan
Chain of kinases (KINOMEscan panel) (Homo sapiens, UniProt Q99755) (Q99755 whole entry): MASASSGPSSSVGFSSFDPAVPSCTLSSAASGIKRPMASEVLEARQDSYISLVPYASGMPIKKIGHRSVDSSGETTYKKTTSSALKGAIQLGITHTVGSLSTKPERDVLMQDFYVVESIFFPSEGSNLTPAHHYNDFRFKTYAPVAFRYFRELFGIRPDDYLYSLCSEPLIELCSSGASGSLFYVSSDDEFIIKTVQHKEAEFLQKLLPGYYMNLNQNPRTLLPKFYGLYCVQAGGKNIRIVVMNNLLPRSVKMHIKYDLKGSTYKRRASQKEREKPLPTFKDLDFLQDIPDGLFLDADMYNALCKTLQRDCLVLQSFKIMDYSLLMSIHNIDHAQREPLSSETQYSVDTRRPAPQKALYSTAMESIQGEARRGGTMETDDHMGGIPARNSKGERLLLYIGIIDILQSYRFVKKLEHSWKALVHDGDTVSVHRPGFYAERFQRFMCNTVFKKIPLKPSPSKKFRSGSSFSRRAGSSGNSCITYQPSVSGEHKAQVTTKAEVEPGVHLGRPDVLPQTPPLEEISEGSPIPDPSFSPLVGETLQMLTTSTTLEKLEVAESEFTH

[6] = molecular target: kinases (KINOMEscan panel) (Homo sapiens, UniProt Q9H0K1); conditions: kinase SIK2; NEW KINOMEscan
Chain of kinases (KINOMEscan panel) (Homo sapiens, UniProt Q9H0K1) (Q9H0K1 whole entry): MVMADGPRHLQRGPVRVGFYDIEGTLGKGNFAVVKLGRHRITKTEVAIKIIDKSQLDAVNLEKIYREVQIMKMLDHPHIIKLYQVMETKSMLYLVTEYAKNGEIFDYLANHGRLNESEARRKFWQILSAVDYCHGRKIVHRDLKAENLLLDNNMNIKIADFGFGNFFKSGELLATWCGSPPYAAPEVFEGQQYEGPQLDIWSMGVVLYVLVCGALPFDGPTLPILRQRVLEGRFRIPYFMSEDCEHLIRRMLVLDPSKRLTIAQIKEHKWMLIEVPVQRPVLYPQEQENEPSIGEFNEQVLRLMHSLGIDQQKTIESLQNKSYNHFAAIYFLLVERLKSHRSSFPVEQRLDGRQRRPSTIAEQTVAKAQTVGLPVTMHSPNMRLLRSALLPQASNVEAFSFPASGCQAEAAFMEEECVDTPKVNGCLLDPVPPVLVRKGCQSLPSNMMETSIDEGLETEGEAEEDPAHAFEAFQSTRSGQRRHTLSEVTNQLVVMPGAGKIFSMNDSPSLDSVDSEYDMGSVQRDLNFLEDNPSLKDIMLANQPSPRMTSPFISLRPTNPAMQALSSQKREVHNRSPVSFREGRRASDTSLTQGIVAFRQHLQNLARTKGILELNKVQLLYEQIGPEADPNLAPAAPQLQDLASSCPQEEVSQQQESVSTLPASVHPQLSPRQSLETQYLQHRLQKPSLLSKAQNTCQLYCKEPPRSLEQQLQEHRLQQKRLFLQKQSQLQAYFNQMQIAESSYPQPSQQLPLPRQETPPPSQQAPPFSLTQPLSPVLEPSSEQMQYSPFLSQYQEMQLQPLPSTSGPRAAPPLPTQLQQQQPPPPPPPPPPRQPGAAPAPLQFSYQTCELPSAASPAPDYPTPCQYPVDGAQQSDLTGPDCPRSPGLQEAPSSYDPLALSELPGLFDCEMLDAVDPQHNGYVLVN

Row | SMILES | KINOMEscan MAP3K7 [1] | KINOMEscan LATS1 [2] | KINOMEscan EPHB3 [3] | KINOMEscan MYO3A [4] | KINOMEscan PIP5K1A [5] | KINOMEscan SIK2 [6]
1 | Cc1cccc(-c2nc(Nc3ccc4nn(C)cc4c3)c3ccccc3n2)n1 [NK167] | 0 | 0 | 6 | 0 | 49 | 0
2 | Cc1cccc(-c2nc(N(C)c3ccc4ncsc4c3)c3ccccc3n2)n1 [NK-161] | 10 | 5 | 6 | 0 | 52 | 0
